# According to US20030004187A1, “Method for preventing dyskinesias” (priority 2001, published 2003):
# Where “and” joins values, the source holds several entries; their conditions need not be identical. Equal values may be shown once.
# Key:
# [1] = tested on: PD patients; settings: published observation in PD patients; cited from earlier work
# [2] = tested on: MPTP monkey; assay: Delay and duration of L-Dopa response; assay type: in vivo, cynomolgus (Macaca fascicularis) monkeys; parameters: Delay of L-Dopa response / Duration of L-Dopa response: unit not given here; settings: for Delay of L-Dopa response / Duration of L-Dopa response: mean ± SEM
# [3] = tested on: PD patients; settings: cited from earlier work
# [4] = tested on: MPTP monkey; assay: Induction of L-Dopa-induced dyskinesias in de novo MPTP parkinsonian monkeys (dyskinetic score); assay type: in vivo, cynomolgus (Macaca fascicularis) monkeys; settings: for Dyskinesia induction (in words): 4 weeks treatment, L-Dopa/benserazide 100/25 mg alone or plus CI-1041 10 mg/kg per os, FIG. 1
# [5] = tested on: MPTP monkey; assay: Antiparkinsonian response, disability scale for MPTP monkey (parkinsonian score); assay type: in vivo, cynomolgus (Macaca fascicularis) monkeys
# [6] = tested on: MPTP monkey; assay: Locomotor activity by electronic motility monitoring system; assay type: in vivo, cynomolgus (Macaca fascicularis) monkeys; settings: FIG. 2B; maintained during the 4 weeks
# [7] = tested on: 6-OHDA-lesioned rats; settings: systemic administration; cited from earlier work
# [8] = tested on: MPTP-treated monkeys; settings: 3 to 30 mg/kg, cited from earlier work
# [9] = tested on: MPTP monkey; assay: Side effects and stereotypies observed during 1-month treatment; settings: CI-1041 10 mg/kg per os with L-Dopa
# Description: The experiments were performed in accordance with the standards of the Canadian Council on Animal care using eight female cynomolgus (Macaca fascicularis) monkeys weighing 3.0 to 3.5 kg. They were housed separately in individual observation cages equipped with an electronic motility monitoring system (Datascience, St. Paul, Minnesota) in a temperature-controlled room and exposed to a 12-hour light/dark cycle (lights on 6 AM-6 PM). They were fed once daily in the afternoon (certified primate chow and fruits), and water was provided ad libitum. […] The animals were scored several times a week using a disability scale described below, where the normal state extends from 0 to 2, and maximal disability is 16 points. […]
# The severity of dyskinesias was also rated every 30 minutes for each body segment: the face, neck, trunk, arms, and legs in the following way: None=0; Mild=1; Moderate=2; Severe=3. The difference between mild, moderate, and severe dyskinesias for a given body segment is based on the assessment of the amplitude of the abnormal movements and the frequency (whether they are occasional, intermittent, or constant); each body segment being scored separately based on assessment of observation in the preceding half hour. […]
# [10] = tested on: 6-OHDA-lesioned hemiparkinsonian rat model; settings: cited from earlier work
# [11] = target: NR1A/2B cloned NMDA receptors (Homo sapiens, UniProt Q05586+Q13224); settings: cited from earlier work
# NR1A/2B cloned NMDA receptors, sequence (Q13224 27-1484, other chains not shown): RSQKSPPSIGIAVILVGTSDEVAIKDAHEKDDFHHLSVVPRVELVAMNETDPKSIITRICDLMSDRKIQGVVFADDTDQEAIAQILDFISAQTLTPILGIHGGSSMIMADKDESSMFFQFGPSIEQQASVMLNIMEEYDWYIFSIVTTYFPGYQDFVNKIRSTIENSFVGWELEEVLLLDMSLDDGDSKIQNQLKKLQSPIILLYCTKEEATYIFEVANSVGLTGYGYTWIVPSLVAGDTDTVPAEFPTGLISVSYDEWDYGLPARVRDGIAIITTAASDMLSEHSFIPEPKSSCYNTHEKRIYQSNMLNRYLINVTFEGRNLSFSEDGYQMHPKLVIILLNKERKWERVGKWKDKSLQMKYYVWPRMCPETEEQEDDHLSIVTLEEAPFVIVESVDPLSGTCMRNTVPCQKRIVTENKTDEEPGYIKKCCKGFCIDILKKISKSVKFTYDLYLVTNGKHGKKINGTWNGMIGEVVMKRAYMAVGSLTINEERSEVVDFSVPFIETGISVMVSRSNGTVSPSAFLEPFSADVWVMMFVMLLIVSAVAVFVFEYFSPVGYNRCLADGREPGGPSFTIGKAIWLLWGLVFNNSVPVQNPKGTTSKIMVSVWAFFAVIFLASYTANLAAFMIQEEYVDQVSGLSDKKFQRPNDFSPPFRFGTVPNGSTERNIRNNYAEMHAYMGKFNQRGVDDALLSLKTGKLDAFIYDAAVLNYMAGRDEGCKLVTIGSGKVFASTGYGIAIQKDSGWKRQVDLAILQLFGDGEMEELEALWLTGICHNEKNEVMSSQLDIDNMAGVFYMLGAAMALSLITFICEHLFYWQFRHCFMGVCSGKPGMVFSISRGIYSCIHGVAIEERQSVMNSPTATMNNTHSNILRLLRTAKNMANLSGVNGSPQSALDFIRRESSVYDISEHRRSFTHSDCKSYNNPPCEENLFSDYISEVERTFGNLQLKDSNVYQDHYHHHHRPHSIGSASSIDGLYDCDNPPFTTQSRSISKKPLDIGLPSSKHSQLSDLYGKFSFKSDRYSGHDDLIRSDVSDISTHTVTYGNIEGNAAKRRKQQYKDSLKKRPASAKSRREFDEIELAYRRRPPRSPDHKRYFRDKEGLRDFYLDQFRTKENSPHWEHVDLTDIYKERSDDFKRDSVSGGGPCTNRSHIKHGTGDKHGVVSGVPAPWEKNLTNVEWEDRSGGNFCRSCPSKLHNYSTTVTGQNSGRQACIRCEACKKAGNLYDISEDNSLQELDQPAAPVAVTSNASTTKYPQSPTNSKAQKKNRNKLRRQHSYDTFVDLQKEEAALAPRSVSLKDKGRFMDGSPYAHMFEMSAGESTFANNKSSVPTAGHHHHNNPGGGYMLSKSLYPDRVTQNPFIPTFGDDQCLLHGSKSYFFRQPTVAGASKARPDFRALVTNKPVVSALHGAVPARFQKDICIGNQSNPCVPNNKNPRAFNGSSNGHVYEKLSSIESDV
compound,measurement,setting,value
CCCN(CCC)CCc1cccc2c1CC(=O)N2 [ropinirole],Sleep attacks,[1],episodes of sudden onset of sleep
CCCN[C@H]1CCc2nc(N)sc2C1 [pramipexole],Sleep attacks,[1],episodes of sudden onset of sleep
N[C@@H](Cc1ccc(O)c(O)c1)C(=O)O [L-Dopa],Delay of L-Dopa response,[2]; Day 7,47.3 ± 4.4^
same,Duration of L-Dopa response,[2]; Day 7,221.3 ± 46.0^
same,Delay of L-Dopa response,[2]; Day 14,59.5 ± 17.2
same,Duration of L-Dopa response,[2]; Day 14,189.3 ± 29.5^
same,Delay of L-Dopa response,[2]; Day 21,52.5 ± 10.3^
same,Duration of L-Dopa response,[2]; Day 21,222.5 ± 24.6^
same,Delay of L-Dopa response,[2]; Day 28,50 ± 5.8
same,Duration of L-Dopa response,[2]; Day 28,198.75 ± 25.5
same,Prevalence of dyskinesias,"[3]; human, in vivo",30-80%
same,Dyskinesia induction (in words),[4],moderate to severe
same,"Persistent Dyskinesia (Max Score), Mean ± SEM","[4]; group mean ± SEM, n=4",7.1 ± 1.3
same,Persistent Dyskinesia,"[4]; individual animal, Yes/None, 28 days treatment",Yes
same,Persistent Dyskinesia (Max Score),"[4]; individual animal, maximum dyskinetic score, maximal score 21",8.5 and 4 and 6 and 10
same,Parkinsonian scores as compared to the control (in words),[5]; FIG. 2A,significantly (P<0.01) lowered
same,"Antiparkinsonian Efficacy (Min. Score), Mean ± SEM","[5]; group mean ± SEM, n=4, 28 days treatment",3.3 ± 0.2
same,Antiparkinsonian Efficacy,"[5]; individual animal, grade in words, 28 consecutive days of daily oral treatment",Good
same,Antiparkinsonian Efficacy (Min. Score),"[5]; individual animal, minimum parkinsonian score, maximal disability 16, 28 days treatment",2.8 and 3.7 and 3.4 (2×)
same,Locomotion as compared to control (in words),[6],significant (P<0.01) increase in locomotion
NC12CC3CC(CC(C3)C1)C2 [amantadine],L-Dopa-induced dyskinesias in PD patients,"[3]; human, in vivo",reduced L-Dopa-induced dyskinesias
same,Maintenance of beneficial effects on motor response complications after treatment initiation,[3]; one study,at least 1 year
COc1ccc2c(c1)[C@]13CCCC[C@@H]1[C@H](C2)N(C)CC3 [dextromethorphan],L-Dopa-induced dyskinesias in PD patients,"[3]; human, in vivo",reduced L-Dopa-induced dyskinesias
C[C@]12N[C@H](Cc3ccccc31)c1ccccc12 [MK-801],L-Dopa-induced motor fluctuations,[7],completely reversed and more interestingly prevented
"O=c1[nH]c2ccc([S+]([O-])CCN3CCC(Cc4ccc(F)cc4)CC3)cc2o1 (centres unmarked) [CI-1041, 6-{2-[4-(4-fluoro-benzyl)-piperidin-1-yl]-ethanesulfinyl}-3H-benzooxazol-2-one]",Effect of CI-1041 co-administration on delay and duration of the L-Dopa response (in words),[2]; trend for delayed response in first 2 weeks,not significantly affected
same,Alteration in the antiparkinsonian effects of L-Dopa,[8]; in combination with L-Dopa,did not produce a consistent alteration
same,Antiparkinsonian activity when administered alone,[8],did not exhibit any antiparkinsonian activity
same,Dyskinesia induction (in words),[4]; 10 mg/kg,prevented dyskinesias
same,Dyskinesia induction (in words),[4]; listed as C-1041,completely prevented the induction of dyskinesias in three animals
same,Side effects / tolerability,[9],"well-tolerated and no emesis, ataxia, or hallucinations were observed"
same,Contraversive rotation induced by L-Dopa,"[10]; peak rate and duration increased, maintained following 9 days of repeated co-administration",potentiated the contraversive rotation
same,Rotation induced by direct acting dopamine agonists SKF 38393 and quinpirole,"[10]; rat, in vivo",potentiated rotation
same,Rotation when given alone,"[10]; rat, in vivo",increased both contraversive and ipsiversive rotations
same,"Affinity, block of NR2B-containing NMDA receptors",[11]; allosteric modulation site,24 nM
same,Selectivity for NR1A/2B cloned NMDA receptors,[11],> 1000 fold
